# In the supplement of paper PMC6045584:
# ± gives the standard deviation of the averaged measurements.
# Columns and labels:
# [1] = compound: NS(=O)(=O)OC[C@@H]1C[C@@H](n2ccc3c(N[C@H]4CCc5ccccc54)ncnc32)C[C@@H]1O [MLN-4924]; experiment: surviving fraction relative to DMSO-only wells; higher = less growth inhibition; conditions: exposure time: 5 days
# Summary of the method: (§1)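 Tumour cell lines were seeded in log phase at 250–500 cells per well into 384-well plates. Starting 24 hours later, inhibitors were present continuously for five days at 0.5, 1, 5, 10, 50, 100, 500 and 1000 nM. Surviving fraction, from CellTiter-Glo luminescence, is normalised to the median of DMSO-only wells. Three screens per line were required, with replicate Pearson r >0.7 and median Z' >0.3 for a line to be kept.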
# [2] = compound: O=C(c1cc(Cc2n[nH]c(=O)c3ccccc23)ccc1F)N1CCN(C(=O)C2CC2)CC1 [OLAPARIB]; experiment: as above; conditions: exposure time: 5 days
# Summary of the method: as §1
Test System,surviving fraction ([1]; 0.5 nM),surviving fraction ([1]; 1 nM),surviving fraction ([1]; 5 nM),surviving fraction ([1]; 10 nM),surviving fraction ([1]; 50 nM),surviving fraction ([1]; 100 nM),surviving fraction ([1]; 500 nM),surviving fraction ([1]; 1000 nM),surviving fraction ([2]; 0.5 nM),surviving fraction ([2]; 1 nM),surviving fraction ([2]; 5 nM),surviving fraction ([2]; 10 nM),surviving fraction ([2]; 50 nM),surviving fraction ([2]; 100 nM),surviving fraction ([2]; 500 nM),surviving fraction ([2]; 1000 nM)
HUO3N1 BONE,0.9977 ± 0.0055,0.994 ± 0.022,1.02 ± 0.017,1.05 ± 0.036,1.17 ± 0.041,1.19 ± 0.034,0.663 ± 0.031,0.528 ± 0.014,1.008 ± 0.0076,1.01 ± 0.024,1.06 ± 0.029,1.02 ± 0.031,1.03 ± 0.045,0.922 ± 0.032,0.913 ± 0.014,0.834 ± 0.02
JIMT1 BREAST,1.06 ± 0.04,1.016 ± 0.0069,1.06 ± 0.019,1.06 ± 0.017,1.09 ± 0.056,1.06 ± 0.062,0.764 ± 0.046,0.539 ± 0.073,0.917 ± 0.035,0.911 ± 0.024,0.9352 ± 0.0078,0.907 ± 0.023,0.934 ± 0.026,0.9217 ± 0.0036,0.9207 ± 0.0084,0.846 ± 0.025
JURKAT HAEMATOPOIETIC AND LYMPHOID TISSUE,1.07 ± 0.016,1.02 ± 0.032,1.01 ± 0.025,0.931 ± 0.025,0.371 ± 0.012,0.154 ± 0.0059,0.0333 ± 0.00058,0.0313 ± 0.00058,1.1 ± 0.022,1.12 ± 0.03,1.08 ± 0.03,1.07 ± 0.014,1.038 ± 0.0047,0.994 ± 0.024,1 ± 0.019,0.847 ± 0.029
KPD BONE,0.9553 ± 0.0032,0.985 ± 0.028,1.04 ± 0.057,1.09 ± 0.094,0.921 ± 0.045,0.736 ± 0.048,0.239 ± 0.017,0.183 ± 0.022,0.983 ± 0.011,0.946 ± 0.024,0.969 ± 0.024,0.995 ± 0.093,0.959 ± 0.059,0.965 ± 0.022,0.765 ± 0.007,0.711 ± 0.033
LM7 BONE,0.919 ± 0.081,1.02 ± 0.026,1.09 ± 0.059,0.946 ± 0.034,0.486 ± 0.033,0.256 ± 0.026,0.1 ± 0.02,0.1 ± 0.0098,1 ± 0.081,0.976 ± 0.058,1.02 ± 0.071,0.963 ± 0.015,0.812 ± 0.042,0.829 ± 0.02,0.614 ± 0.0076,0.554 ± 0.014
LNCAP PROSTATE,0.939 ± 0.1,1 ± 0.021,0.803 ± 0.092,0.496 ± 0.051,0.085 ± 0.014,0.026 ± 0.001,0.0227 ± 0.0011,0.024,1.09 ± 0.1,1.03 ± 0.16,1 ± 0.096,1.032 ± 0.0049,1.12 ± 0.086,1.02 ± 0.29,0.97 ± 0.061,0.82 ± 0.13
MCF7 BREAST,0.889 ± 0.029,0.9226 ± 0.0022,0.935 ± 0.013,0.975 ± 0.027,0.641 ± 0.063,0.448 ± 0.062,0.265 ± 0.026,0.235 ± 0.016,0.891 ± 0.015,0.941 ± 0.014,0.946 ± 0.085,0.907 ± 0.037,0.96 ± 0.039,0.906 ± 0.051,0.95 ± 0.026,0.943 ± 0.043
MDAMB134 BREAST,0.904 ± 0.21,1.036 ± 0.0099,0.934 ± 0.12,0.731 ± 0.1,0.562 ± 0.14,0.393 ± 0.03,0.267 ± 0.0035,0.281 ± 0.005,0.96 ± 0.055,1.04 ± 0.17,1.04 ± 0.13,1.05 ± 0.03,0.971 ± 0.21,0.738 ± 0.042,0.8595 ± 0.0035,0.823 ± 0.028
MDAMB157 BREAST,1 ± 0.019,0.966 ± 0.087,0.968 ± 0.07,0.931 ± 0.041,0.906 ± 0.09,0.743 ± 0.054,0.379 ± 0.043,0.267 ± 0.022,1.01 ± 0.093,1.06 ± 0.035,0.992 ± 0.085,0.968 ± 0.051,0.991 ± 0.096,0.965 ± 0.043,0.903 ± 0.079,0.729 ± 0.04
MDAMB231 BREAST,0.9815 ± 0.006,0.978 ± 0.026,0.971 ± 0.025,0.933 ± 0.024,0.676 ± 0.0082,0.62 ± 0.035,0.243 ± 0.0094,0.175 ± 0.0081,0.961 ± 0.02,0.98 ± 0.031,0.974 ± 0.0099,0.97 ± 0.029,0.929 ± 0.017,0.957 ± 0.013,0.899 ± 0.015,0.807 ± 0.016
MDAMB361 BREAST,0.894 ± 0.12,0.785 ± 0.028,0.829 ± 0.051,0.853 ± 0.1,0.735 ± 0.048,0.736 ± 0.061,0.594 ± 0.03,0.549 ± 0.042,0.82 ± 0.026,0.793 ± 0.076,0.773 ± 0.094,0.767 ± 0.042,0.612 ± 0.064,0.603 ± 0.048,0.577 ± 0.051,0.523 ± 0.036
